Data published in BindingDB's records for doi:10.1016/j.bioorg.2015.03.004 (Suez Canal University, 2015).

Molecular target: Vascular endothelial growth factor receptor 2 (Homo sapiens, UniProt P35968)
Assay: ADP-GloTM Assay
Method: The protein kinase assays used to determine IC50 value were performed using ADP-GloTM assay kit. The assay was started by incubating the reaction mixture in a 96-well plate at 30 °C for 30 min. After the 30 min incubation period, the assay was terminated by the addition of […] of ADPGloTM Reagent. The 96-well plate was shaken and then incubated for 40 min at ambient temperature, […] of kinase detection reagent was added, the 96-well reaction plate was then read using ADP-GloTM luminescences protocol on GloMaxTM plate reader. Blank control waqs set up that included all the assay components except the addition of appropriate substrate (replace with equal volume of kinase assay buffer).

Sequence of Vascular endothelial growth factor receptor 2 (P35968 whole entry): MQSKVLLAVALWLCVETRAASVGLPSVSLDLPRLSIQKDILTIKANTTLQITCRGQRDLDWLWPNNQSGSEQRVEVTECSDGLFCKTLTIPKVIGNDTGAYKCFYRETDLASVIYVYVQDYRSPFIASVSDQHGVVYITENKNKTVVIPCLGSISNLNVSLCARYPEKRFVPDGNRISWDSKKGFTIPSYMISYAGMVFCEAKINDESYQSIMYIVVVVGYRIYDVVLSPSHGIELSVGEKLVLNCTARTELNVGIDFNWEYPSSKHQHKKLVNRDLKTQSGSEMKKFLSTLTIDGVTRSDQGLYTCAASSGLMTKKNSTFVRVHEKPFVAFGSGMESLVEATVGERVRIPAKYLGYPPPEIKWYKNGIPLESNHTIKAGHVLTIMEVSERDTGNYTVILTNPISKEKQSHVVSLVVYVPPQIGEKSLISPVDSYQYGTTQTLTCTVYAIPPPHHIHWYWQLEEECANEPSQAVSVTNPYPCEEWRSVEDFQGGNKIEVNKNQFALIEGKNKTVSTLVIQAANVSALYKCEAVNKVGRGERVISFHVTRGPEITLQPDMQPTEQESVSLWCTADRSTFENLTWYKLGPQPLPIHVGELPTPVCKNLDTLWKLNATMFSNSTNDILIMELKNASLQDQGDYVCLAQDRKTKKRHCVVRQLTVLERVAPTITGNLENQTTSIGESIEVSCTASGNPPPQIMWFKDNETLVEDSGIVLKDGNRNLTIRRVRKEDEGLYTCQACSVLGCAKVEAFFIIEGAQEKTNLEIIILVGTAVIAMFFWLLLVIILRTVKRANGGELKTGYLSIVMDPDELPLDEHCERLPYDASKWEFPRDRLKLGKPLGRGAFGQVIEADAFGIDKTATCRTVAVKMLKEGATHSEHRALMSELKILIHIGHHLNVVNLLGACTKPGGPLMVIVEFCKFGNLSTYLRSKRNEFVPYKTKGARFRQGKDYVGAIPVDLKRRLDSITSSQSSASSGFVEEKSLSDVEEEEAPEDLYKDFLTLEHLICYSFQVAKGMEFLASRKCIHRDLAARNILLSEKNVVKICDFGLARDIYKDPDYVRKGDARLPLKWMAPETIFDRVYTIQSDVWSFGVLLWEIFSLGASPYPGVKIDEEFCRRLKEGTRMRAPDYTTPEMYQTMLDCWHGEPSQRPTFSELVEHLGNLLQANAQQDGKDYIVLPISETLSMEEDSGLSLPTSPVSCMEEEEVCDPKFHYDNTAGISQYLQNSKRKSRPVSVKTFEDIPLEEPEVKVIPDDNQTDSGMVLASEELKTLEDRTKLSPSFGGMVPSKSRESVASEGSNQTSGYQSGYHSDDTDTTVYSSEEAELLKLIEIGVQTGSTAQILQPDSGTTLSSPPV

IC50: 2600 nM
Compound: Cc1cc(C)c2c(Nc3ncnc4c3sc3nc(C)cc(C)c34)csc2n1 [N-(4,6-dimethylthieno[2,3-b]pyridine)-7,9-dimethylpyrido[30,20:4,5]thieno[3,2-d]pyrimidin-4-amine (9d)]
